Assay results reported in patent US20220133702A1, “CYSTIC FIBROSIS TRANSMEMBRANE CONDUCTANCE REGULATOR MODULATORS FOR TREATING AUTOSOMAL DOMINANT POLYCYSTIC KIDNEY DISEASE” (The Johns Hopkins University, priority 2020, published 2022).

How the values were obtained:
[1] = tested on: adenylyl cyclase (AC) 6 and AC3 in PN cells; assay: Western blot of adenylyl cyclase expression; format: cell-based, mouse; details: PN cells treated with VX-809
Experimental: FIG. 4A, FIG. 4B, FIG. 4C, FIG. 4D, and FIG. 4E show (FIG. 4A-FIG. 4B) cAMP levels are reduced by VX-809. (FIG. 4A) cAMP levels in mouse tissue were reduced by VX-809. The kidney samples (n=6) analyzed were taken from those depicted in FIG. 1. (FIG. 4B) Confluent PN and PH cells were treated with VX-809 (10 μM) or DMSO for 16 hand then treated with forskolin (100 μM) for 30 min before the cells were harvested for the assay. Columns represent means±SEM. Statistical analysis was performed using a two-tailed Student's t-test. Each set of data is from three individual wells; Note that resting cAMP is greater in PN vs PH cells as previously shown (25). Also note that forskolin caused a large increase in cAMP. A smaller increase occurred with IBMX. However, the increase induced by forskolin alone was similar to that by IBMX plus forskolin. […] (FIG. 4C, FIG. 4D, and FIG. 4E) Adenylyl cyclase expression. (FIG. 4C) Western blot showing the expression of adenylyl cyclase (AC) 6 and AC3 in treated and control PN cells. (FIG. 4D-FIG. 4E) Columns represent means±SEM of the AC3 and AC6 expression. The data were analyzed by non-parametric t-test. The experiment was repeated four times. For all graphs, *P<0.05, **P<0.01, and ***P<0.001;
There are two classes of adenylyl cyclases that are regulated by intracellular Ca^2+: one class is activated, and the other inhibited. […]

[2] = tested on: HSP27, HSP70 and HSP90 in PN cells; assay: Western blot of heat shock proteins in cells; format: cell-based, mouse; details: 10 μM, 16 h
Experimental: FIG. 8A, FIG. 8B, FIG. 8C, FIG. 8D, FIG. 8E, FIG. 8F, FIG. 8G, and FIG. 8H show chaperone expression is altered in PH and PN cells by VX-809. […] Western blot showing expression of HSP27, HSP70 and HSP90 in VX-809 treated or control PN cells. […] (FIG. 8E). Western blot of HSP27, HSP70 and HSP90 in PH vs. PN cells. […] Whereas, Hsp70 is higher in PH vs. PN cells. Data were analyzed by non-parametric t test. Experiment was repeated 4-5 times. Cells were grown in 10-cm culture dishes at permissive conditions (33° C.) with y-interferon in culture media. Cells were then transferred to non-permissive conditions at 37° C., y-interferon free culture media and evaluated at full confluence. At day four, cells were treated with VX-809 (10 μM) for 16 h and harvested on fifth day for assay. *P<0.05., **P<0.01, ***P<0.001, ****P<0.0001;
To facilitate their growth in the kidney, cysts have developed an altered network of proteins that most likely serves to protect them from stress . Next, it was determined whether VX-809 would alter the levels of Hsps in pkd−/− mice and in PN cells. […] Hsp 27, 70 and 90 are all elevated in cystic kidneys compared to normal controls. […] There is no change in Hsp40. […] Both sets of data are consistent with an alteration in the heat shock response to cyst growth.

GRP78, Ero1, and GADD153 = assay: Western blot of ER stress markers in kidney tissue lysates; format: in vivo, mouse; details: 30 mg/kg BW, cyst-induced mice
Experimental: FIG. 11A. FIG. 11B, FIG. 11C, FIG. 11D, and FIG. 11E show expression of ER stress markers GRP78, Ero1, and GADD in Pkd1-1 mice treated with VX-809. (FIG. 11A & FIG. 11D) Representative Western blot images of GRP78, ErO1, and GADD in lysates of kidney tissue from no cyst induced (ND), cyst induced with doxycycline (D) or cyst induced pkd−/− mice treated with VX-809 (D+VX-809) 30 mg/kg BW. (FIG. 11B, FIG. 11C and FIG. 11E) Columns represent averages±standard errors of GRP78, Ero1, and GADD153 expression. Data were analyzed by non-parametric t-test. n=4 for each treated and control groups. Black lines between lanes represent representative experiments from the same gel but loaded in different lanes. **P<0.01, ***P<0.001;
Given that VX-809 alters an ensemble of Hsps, it was evaluated whether VX-809 alters proteins associated with ER stress. To address this question, the levels of three ER stress-associated proteins were measured, 78-kDa glucose-regulated protein (GRP78), ER oxidoreductin 1 (Ero1) and DNA damage-inducible protein 3 (GADD153), also known as C/EBP homologous protein (CHOP) (37). The results are depicted in FIG. 11 show no changes in GRP78 or Ero1 in response to VX-809.

NHE3 in PN cells = assay: NHE3 activity; format: cell-based, mouse; details: treated PN cells vs PN cells
Experimental: FIG. 15A and FIG. 15B show NHE3 activity in PN and PH cells (FIG. 15A and FIG. 15B) and NHE3 activity in PN cells treated with VX-809.
FIG. 16A, FIG. 16B, and FIG. 16C show NHE activity in PN/PH cells or PN cells treated with VX-809;
The expression and activity of […] were evaluated. Specifically, NHE3 expression was evaluated in PN cells that were treated with VX-809. […] was also studied in PN, PH, and PN cells treated with VX-809. […] Next, NHE3 activity was evaluated in PN/PH cells or PN cells treated with VX-809. NHE3 activity was increased in PN cells treated with VX-809, as compared to PN cells (FIG. 16A). NHE3 activity was higher in control PH cells than in PN cells (FIG. 16B). […] NHE3 activity was increased in both VX-809 treated PN cells and control PH cells, as compared to control PN cells (FIG. 16C).

Q: Cc1ccc(NC(=O)C2(c3ccc4c(c3)OC(F)(F)O4)CC2)nc1-c1cccc(C(=O)O)c1 [VX-809, lumacaftor] was tested. Which AC3 levels [1] did it give?
A: decreased

Q: And the AC6 regulation [1]?
A: Regulates AC3 but not AC6

Q: And the Hsp27 expression [2]?
A: reduced expression

Q: What about the Hsp70 expression [2] of the same molecule?
A: reduced expression

Q: And the Hsp90 expression [2]?
A: reduced expression

Q: What about the Ero1 level (GRP78, Ero1, and GADD153) of the same molecule?
A: no changes

Q: What about the GADD153 level (GRP78, Ero1, and GADD153) of the same molecule?
A: equally dramatic reduction

Q: And the GRP78 level (GRP78, Ero1, and GADD153)?
A: no changes

Q: And the NHE3 activity (NHE3 in PN cells)?
A: significantly increased
